{"source": "patent US20220281848A1", "about": "“PYRAZOLE-SUBSTITUTED PYRROLIDINONES AS HERBICIDES” (FMC Corporation, priority 2019, published 2022)", "system": "plants", "assay": "Test D pre-emergence, other plants of Tables D1 and D3", "type": "in vivo", "settings": "preemergent, 20 DAA", "description": "A formulation containing 50 g/L of the test chemical was prepared by dissolving the active ingredient in a mixture of organic solvents and emulsifier, details of which are provided in the table. This formulation was then mixed with a small, variable amount of acetone to aid dissolution, before addition of a 0.2% v/v aqueous solution of an adjuvant, as the aqueous diluent, to form an aqueous spray solution which contains a predetermined concentration of the active ingredient.\nThis aqueous spray solution was then sprayed onto plants including maize and wheat that had been seed treated with a herbicide safener, after one day's cultivation (for pre-emergence) or after about 12 days' cultivation (for post-emergence). The plants were grown from seeds sown in standard soil, placed in a glasshouse under controlled conditions (at 24/18° C. or 20/16° C., day/night; 16 h light; 65% humidity). After spray application the plants were then grown in a glasshouse under the same conditions and watered twice daily. After 15 d for post-emergence and 20 DAA for pre-emergence the test was evaluated (100=total damage to plant; 0=no damage to plant).", "data": [{"smiles": "CN1CC(c2cc(C(F)(F)F)n(C)n2)C(C(=O)Nc2ccc(F)c(F)c2F)C1=O", "note": "(racemic) [Compound 17]", "values": [{"measurement": "damage to plant (100=total damage to plant; 0=no damage to plant), ABUTH", "setting": "rate 15", "result": 0}, {"measurement": "damage to plant (100=total damage to plant; 0=no damage to plant), ABUTH", "setting": "rate 30", "result": 0}, {"measurement": "damage to plant (100=total damage to plant; 0=no damage to plant), ABUTH", "setting": "rate 60", "result": 0}, {"measurement": "damage to plant (100=total damage to plant; 0=no damage to plant), ABUTH", "setting": "rate 130", "result": 0}, {"measurement": "damage to plant (100=total damage to plant; 0=no damage to plant), ABUTH", "setting": "rate 250", "result": 0}, {"measurement": "damage to plant (100=total damage to plant; 0=no damage to plant), ABUTH", "setting": "rate 500", "result": 10}, {"measurement": "damage to plant (100=total damage to plant; 0=no damage to plant), AMARE", "setting": "rate 15", "result": 0}, {"measurement": "damage to plant (100=total damage to plant; 0=no damage to plant), AMARE", "setting": "rate 30", "result": 0}, {"measurement": "damage to plant (100=total damage to plant; 0=no damage to plant), AMARE", "setting": "rate 60", "result": 0}, {"measurement": "damage to plant (100=total damage to plant; 0=no damage to plant), AMARE", "setting": "rate 130", "result": 0}, {"measurement": "damage to plant (100=total damage to plant; 0=no damage to plant), AMARE", "setting": "rate 250", "result": 0}, {"measurement": "damage to plant (100=total damage to plant; 0=no damage to plant), AMARE", "setting": "rate 500", "result": 0}, {"measurement": "damage to plant (100=total damage to plant; 0=no damage to plant), BIDPI", "setting": "rate 15", "result": 0}, {"measurement": "damage to plant (100=total damage to plant; 0=no damage to plant), BIDPI", "setting": "rate 30", "result": 0}, {"measurement": "damage to plant (100=total damage to plant; 0=no damage to plant), BIDPI", "setting": "rate 60", "result": 0}, {"measurement": "damage to plant (100=total damage to plant; 0=no damage to plant), BIDPI", "setting": "rate 130", "result": 0}, {"measurement": "damage to plant (100=total damage to plant; 0=no damage to plant), BIDPI", "setting": "rate 250", "result": 0}, {"measurement": "damage to plant (100=total damage to plant; 0=no damage to plant), BIDPI", "setting": "rate 500", "result": 0}, {"measurement": "damage to plant (100=total damage to plant; 0=no damage to plant), BRAPL", "setting": "rate 15", "result": 20}, {"measurement": "damage to plant (100=total damage to plant; 0=no damage to plant), BRAPL", "setting": "rate 30", "result": 60}, {"measurement": "damage to plant (100=total damage to plant; 0=no damage to plant), BRAPL", "setting": "rate 60", "result": 80}, {"measurement": "damage to plant (100=total damage to plant; 0=no damage to plant), BRAPL", "setting": "rate 130", "result": 80}, {"measurement": "damage to plant (100=total damage to plant; 0=no damage to plant), BRAPL", "setting": "rate 250", "result": 80}, {"measurement": "damage to plant (100=total damage to plant; 0=no damage to plant), BRAPL", "setting": "rate 500", "result": 90}, {"measurement": "damage to plant (100=total damage to plant; 0=no damage to plant), CYPES", "setting": "rate 15", "result": 0}, {"measurement": "damage to plant (100=total damage to plant; 0=no damage to plant), CYPES", "setting": "rate 30", "result": 0}, {"measurement": "damage to plant (100=total damage to plant; 0=no damage to plant), CYPES", "setting": "rate 60", "result": 0}, {"measurement": "damage to plant (100=total damage to plant; 0=no damage to plant), CYPES", "setting": "rate 130", "result": 0}, {"measurement": "damage to plant (100=total damage to plant; 0=no damage to plant), CYPES", "setting": "rate 250", "result": 0}, {"measurement": "damage to plant (100=total damage to plant; 0=no damage to plant), CYPES", "setting": "rate 500", "result": 0}, {"measurement": "damage to plant (100=total damage to plant; 0=no damage to plant), DIGSA", "setting": "rate 15", "result": 30}, {"measurement": "damage to plant (100=total damage to plant; 0=no damage to plant), DIGSA", "setting": "rate 30", "result": 90}, {"measurement": "damage to plant (100=total damage to plant; 0=no damage to plant), DIGSA", "setting": "rate 60", "result": 90}, {"measurement": "damage to plant (100=total damage to plant; 0=no damage to plant), DIGSA", "setting": "rate 130", "result": 90}, {"measurement": "damage to plant (100=total damage to plant; 0=no damage to plant), DIGSA", "setting": "rate 250", "result": 90}, {"measurement": "damage to plant (100=total damage to plant; 0=no damage to plant), DIGSA", "setting": "rate 500", "result": 90}, {"measurement": "damage to plant (100=total damage to plant; 0=no damage to plant), ECHCG", "setting": "rate 15", "result": 0}, {"measurement": "damage to plant (100=total damage to plant; 0=no damage to plant), ECHCG", "setting": "rate 30", "result": 90}, {"measurement": "damage to plant (100=total damage to plant; 0=no damage to plant), ECHCG", "setting": "rate 60", "result": 90}, {"measurement": "damage to plant (100=total damage to plant; 0=no damage to plant), ECHCG", "setting": "rate 130", "result": 90}, {"measurement": "damage to plant (100=total damage to plant; 0=no damage to plant), ECHCG", "setting": "rate 250", "result": 100}, {"measurement": "damage to plant (100=total damage to plant; 0=no damage to plant), ECHCG", "setting": "rate 500", "result": 100}, {"measurement": "damage to plant (100=total damage to plant; 0=no damage to plant), ELEIN", "setting": "rate 15", "result": 0}, {"measurement": "damage to plant (100=total damage to plant; 0=no damage to plant), ELEIN", "setting": "rate 30", "result": 0}, {"measurement": "damage to plant (100=total damage to plant; 0=no damage to plant), ELEIN", "setting": "rate 60", "result": 0}, {"measurement": "damage to plant (100=total damage to plant; 0=no damage to plant), ELEIN", "setting": "rate 130", "result": 0}, {"measurement": "damage to plant (100=total damage to plant; 0=no damage to plant), ELEIN", "setting": "rate 250", "result": 0}, {"measurement": "damage to plant (100=total damage to plant; 0=no damage to plant), ELEIN", "setting": "rate 500", "result": 0}, {"measurement": "damage to plant (100=total damage to plant; 0=no damage to plant), EPHHL", "setting": "rate 15", "result": 0}, {"measurement": "damage to plant (100=total damage to plant; 0=no damage to plant), EPHHL", "setting": "rate 30", "result": 0}, {"measurement": "damage to plant (100=total damage to plant; 0=no damage to plant), EPHHL", "setting": "rate 60", "result": 0}, {"measurement": "damage to plant (100=total damage to plant; 0=no damage to plant), EPHHL", "setting": "rate 130", "result": 0}, {"measurement": "damage to plant (100=total damage to plant; 0=no damage to plant), EPHHL", "setting": "rate 250", "result": 0}, {"measurement": "damage to plant (100=total damage to plant; 0=no damage to plant), EPHHL", "setting": "rate 500", "result": 10}, {"measurement": "damage to plant (100=total damage to plant; 0=no damage to plant), GLXMA", "setting": "rate 15", "result": 0}, {"measurement": "damage to plant (100=total damage to plant; 0=no damage to plant), GLXMA", "setting": "rate 30", "result": 0}, {"measurement": "damage to plant (100=total damage to plant; 0=no damage to plant), GLXMA", "setting": "rate 60", "result": 0}, {"measurement": "damage to plant (100=total damage to plant; 0=no damage to plant), GLXMA", "setting": "rate 130", "result": 0}, {"measurement": "damage to plant (100=total damage to plant; 0=no damage to plant), GLXMA", "setting": "rate 250", "result": 0}, {"measurement": "damage to plant (100=total damage to plant; 0=no damage to plant), GLXMA", "setting": "rate 500", "result": 0}, {"measurement": "damage to plant (100=total damage to plant; 0=no damage to plant), IPOHE", "setting": "rate 15", "result": 0}, {"measurement": "damage to plant (100=total damage to plant; 0=no damage to plant), IPOHE", "setting": "rate 30", "result": 0}, {"measurement": "damage to plant (100=total damage to plant; 0=no damage to plant), IPOHE", "setting": "rate 60", "result": 0}, {"measurement": "damage to plant (100=total damage to plant; 0=no damage to plant), IPOHE", "setting": "rate 130", "result": 0}, {"measurement": "damage to plant (100=total damage to plant; 0=no damage to plant), IPOHE", "setting": "rate 250", "result": 0}, {"measurement": "damage to plant (100=total damage to plant; 0=no damage to plant), IPOHE", "setting": "rate 500", "result": 0}, {"measurement": "damage to plant (100=total damage to plant; 0=no damage to plant), ORYSA", "setting": "rate 15", "result": 0}, {"measurement": "damage to plant (100=total damage to plant; 0=no damage to plant), ORYSA", "setting": "rate 30", "result": 0}, {"measurement": "damage to plant (100=total damage to plant; 0=no damage to plant), ORYSA", "setting": "rate 60", "result": 0}, {"measurement": "damage to plant (100=total damage to plant; 0=no damage to plant), ORYSA", "setting": "rate 130", "result": 0}, {"measurement": "damage to plant (100=total damage to plant; 0=no damage to plant), ORYSA", "setting": "rate 250", "result": 0}, {"measurement": "damage to plant (100=total damage to plant; 0=no damage to plant), ORYSA", "setting": "rate 500", "result": 0}, {"measurement": "damage to plant (100=total damage to plant; 0=no damage to plant), PANMI", "setting": "rate 15", "result": 0}, {"measurement": "damage to plant (100=total damage to plant; 0=no damage to plant), PANMI", "setting": "rate 30", "result": 0}, {"measurement": "damage to plant (100=total damage to plant; 0=no damage to plant), PANMI", "setting": "rate 60", "result": 0}, {"measurement": "damage to plant (100=total damage to plant; 0=no damage to plant), PANMI", "setting": "rate 130", "result": 0}, {"measurement": "damage to plant (100=total damage to plant; 0=no damage to plant), PANMI", "setting": "rate 250", "result": 0}, {"measurement": "damage to plant (100=total damage to plant; 0=no damage to plant), PANMI", "setting": "rate 500", "result": 0}, {"measurement": "damage to plant (100=total damage to plant; 0=no damage to plant), SETFA", "setting": "rate 15", "result": 0}, {"measurement": "damage to plant (100=total damage to plant; 0=no damage to plant), SETFA", "setting": "rate 30", "result": 80}, {"measurement": "damage to plant (100=total damage to plant; 0=no damage to plant), SETFA", "setting": "rate 60", "result": 90}, {"measurement": "damage to plant (100=total damage to plant; 0=no damage to plant), SETFA", "setting": "rate 130", "result": 90}, {"measurement": "damage to plant (100=total damage to plant; 0=no damage to plant), SETFA", "setting": "rate 250", "result": 90}, {"measurement": "damage to plant (100=total damage to plant; 0=no damage to plant), SETFA", "setting": "rate 500", "result": 90}, {"measurement": "damage to plant (100=total damage to plant; 0=no damage to plant), SORVU", "setting": "rate 15", "result": 0}, {"measurement": "damage to plant (100=total damage to plant; 0=no damage to plant), SORVU", "setting": "rate 30", "result": 0}, {"measurement": "damage to plant (100=total damage to plant; 0=no damage to plant), SORVU", "setting": "rate 60", "result": 0}, {"measurement": "damage to plant (100=total damage to plant; 0=no damage to plant), SORVU", "setting": "rate 130", "result": 0}, {"measurement": "damage to plant (100=total damage to plant; 0=no damage to plant), SORVU", "setting": "rate 250", "result": 0}]}]}
